Calls of active or inactive are those of the source.
Key:
[1] = biological target: T1, Short transient receptor potential channel 4 (Mus musculus, UniProt Q9QUQ5); assay: mouse TRPC4 channel inhibitors, dose response, cell-based, HEK293 TRPC4/mu-opioid, Fluo-4 calcium (AID 434942); type: functional;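 further: potency of inhibitors blocking the TRPC4 calcium response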
T1 sequence (Q9QUQ5 whole entry): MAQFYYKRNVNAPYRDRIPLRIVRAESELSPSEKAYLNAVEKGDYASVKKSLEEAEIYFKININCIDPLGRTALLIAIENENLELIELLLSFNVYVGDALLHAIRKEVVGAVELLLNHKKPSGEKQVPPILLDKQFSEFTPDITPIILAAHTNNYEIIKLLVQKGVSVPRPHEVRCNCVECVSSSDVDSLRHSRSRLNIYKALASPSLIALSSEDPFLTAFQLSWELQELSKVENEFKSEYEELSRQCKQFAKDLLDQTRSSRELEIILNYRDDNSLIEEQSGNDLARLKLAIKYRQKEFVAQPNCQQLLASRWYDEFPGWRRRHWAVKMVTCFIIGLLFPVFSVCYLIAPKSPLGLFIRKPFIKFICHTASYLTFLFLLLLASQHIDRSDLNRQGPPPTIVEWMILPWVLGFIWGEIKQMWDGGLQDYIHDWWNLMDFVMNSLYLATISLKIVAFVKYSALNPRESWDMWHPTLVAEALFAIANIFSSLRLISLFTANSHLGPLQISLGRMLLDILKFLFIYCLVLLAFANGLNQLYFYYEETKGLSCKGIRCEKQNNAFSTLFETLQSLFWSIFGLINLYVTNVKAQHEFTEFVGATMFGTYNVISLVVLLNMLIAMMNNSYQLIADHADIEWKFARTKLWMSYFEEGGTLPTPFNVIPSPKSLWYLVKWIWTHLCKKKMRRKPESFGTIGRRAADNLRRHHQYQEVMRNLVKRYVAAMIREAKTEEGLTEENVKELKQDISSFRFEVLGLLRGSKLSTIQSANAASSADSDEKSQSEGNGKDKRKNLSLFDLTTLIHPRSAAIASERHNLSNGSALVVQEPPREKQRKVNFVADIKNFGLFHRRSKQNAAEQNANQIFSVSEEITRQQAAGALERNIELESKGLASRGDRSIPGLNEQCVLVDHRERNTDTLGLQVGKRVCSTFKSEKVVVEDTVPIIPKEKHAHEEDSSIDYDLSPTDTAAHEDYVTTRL

[2] = Luminescence Cell-Based Dose Response HTS to Identify Activators of Luciferase Translation or Activity in H4 […] Cells. [Related pubchem assays: 1829 (Project Summary), 1814 (Primary HTS)]; type: functional
[3] = Luminescence Cell-Based Dose Confirmation HTS to Identify Activators of 5'UTR Stem-Loop Driven Alpha-Synuclein mRNA Translation in H4 Neuroglioblastoma Cells. [Related pubchem assays: 1829 (Project Summary), 1814 (Primary HTS)]; type: functional
H4 = assay: Luminescence Cell-Based Dose Response HTS to Identify Activators of 5'UTR Stem-Loop Driven Prion Protein mRNA Translation in H4 Neuroglioblastoma Cells. [Related pubchem assays: 1829 (Project Summary), 1814 (Primary HTS)]; type: functional; conditions: Homo sapiens
Protein skinhead-1 = biological target: T2, Protein skinhead-1 (Caenorhabditis elegans, UniProt P34707); type: functional
T2 sequence (P34707 whole entry): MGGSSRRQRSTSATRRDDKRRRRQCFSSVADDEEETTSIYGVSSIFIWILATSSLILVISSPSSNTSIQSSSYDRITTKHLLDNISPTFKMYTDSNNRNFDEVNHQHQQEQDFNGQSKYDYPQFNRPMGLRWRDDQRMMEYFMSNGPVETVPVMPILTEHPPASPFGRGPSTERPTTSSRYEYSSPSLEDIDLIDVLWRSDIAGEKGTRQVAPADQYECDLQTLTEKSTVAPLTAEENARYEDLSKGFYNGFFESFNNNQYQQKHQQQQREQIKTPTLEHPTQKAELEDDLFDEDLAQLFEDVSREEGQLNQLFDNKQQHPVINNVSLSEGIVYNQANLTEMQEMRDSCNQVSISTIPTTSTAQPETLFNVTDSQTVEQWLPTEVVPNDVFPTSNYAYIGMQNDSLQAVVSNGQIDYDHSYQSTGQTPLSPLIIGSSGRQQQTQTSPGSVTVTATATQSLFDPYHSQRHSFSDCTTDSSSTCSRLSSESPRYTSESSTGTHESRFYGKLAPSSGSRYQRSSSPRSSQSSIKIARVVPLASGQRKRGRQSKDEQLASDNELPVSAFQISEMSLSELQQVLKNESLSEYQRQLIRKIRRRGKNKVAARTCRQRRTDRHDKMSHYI

[4] = biological target: T3, Polyadenylate-binding protein 1 (Homo sapiens, UniProt P11940); assay: PABP1 MLLE–PAM2 interaction inhibitors, dose response, miRNA deadenylation inhibitor project, biochemical, fluorescence polarization, Cy5-PAM2 peptide, secondary (AID 602260); type: functional; conditions: read-out: IC50_Mean
T3 sequence (P11940 whole entry): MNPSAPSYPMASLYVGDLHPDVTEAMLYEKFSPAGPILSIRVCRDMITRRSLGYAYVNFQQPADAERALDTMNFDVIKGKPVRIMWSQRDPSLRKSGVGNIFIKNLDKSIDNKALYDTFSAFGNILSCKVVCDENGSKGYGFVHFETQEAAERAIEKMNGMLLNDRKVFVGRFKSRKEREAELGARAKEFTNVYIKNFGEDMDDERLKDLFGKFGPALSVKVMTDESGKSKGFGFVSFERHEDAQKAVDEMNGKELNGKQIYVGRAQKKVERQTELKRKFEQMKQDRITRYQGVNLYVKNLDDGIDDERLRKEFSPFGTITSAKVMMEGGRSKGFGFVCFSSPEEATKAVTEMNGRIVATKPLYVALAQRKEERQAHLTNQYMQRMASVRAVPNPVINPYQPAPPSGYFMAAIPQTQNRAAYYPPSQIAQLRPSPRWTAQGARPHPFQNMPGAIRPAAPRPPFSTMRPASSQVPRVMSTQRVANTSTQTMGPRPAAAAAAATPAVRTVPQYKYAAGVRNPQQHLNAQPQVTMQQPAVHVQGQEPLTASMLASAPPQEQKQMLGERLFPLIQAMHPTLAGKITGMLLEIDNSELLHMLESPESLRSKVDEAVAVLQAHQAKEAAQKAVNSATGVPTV

[5] = biological target: Induced myeloid leukemia cell differentiation protein Mcl-1 (Homo sapiens, UniProt Q07820); type: functional
Induced myeloid leukemia cell differentiation protein Mcl-1, sequence (Q07820 whole entry): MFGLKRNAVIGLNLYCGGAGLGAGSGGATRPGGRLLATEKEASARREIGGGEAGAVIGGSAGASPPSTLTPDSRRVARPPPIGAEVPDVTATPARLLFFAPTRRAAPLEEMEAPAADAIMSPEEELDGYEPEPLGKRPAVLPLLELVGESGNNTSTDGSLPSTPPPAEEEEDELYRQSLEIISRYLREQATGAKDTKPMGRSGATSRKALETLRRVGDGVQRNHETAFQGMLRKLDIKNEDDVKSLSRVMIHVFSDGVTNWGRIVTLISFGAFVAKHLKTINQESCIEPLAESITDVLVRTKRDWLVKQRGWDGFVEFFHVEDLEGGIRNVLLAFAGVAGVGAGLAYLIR

[6] = biological target: T3, Polyadenylate-binding protein 1; assay: PABP1 MLLE–PAM2 binding inhibitor potency, dose response, biochemical, fluorescence polarization, FITC-PAM2 peptide (AID 602259); type: functional; conditions: read-out: IC50_Mean
[7] = NIH-3T3 fibroblast cytotoxicity, dose response, cytotoxicity control, cell-based, fluorescence, Alamar Blue, secondary assay (AID 2327); type: functional;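 further: NIH-3T3 mouse fibroblasts cultured with fluconazole at 8 µg/mL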
[8] = biological target: DNA dC->dU-editing enzyme APOBEC-3G (Homo sapiens, UniProt Q9HC16); assay: Dose Response confirmation of small molecule APOBEC3G DNA Deaminase Inhibitors via a fluorescence-based single-stranded DNA deaminase assay. [Related pubchem assays (depositor defined):AID493012, AID493028]; type: functional
DNA dC->dU-editing enzyme APOBEC-3G, sequence (Q9HC16 whole entry): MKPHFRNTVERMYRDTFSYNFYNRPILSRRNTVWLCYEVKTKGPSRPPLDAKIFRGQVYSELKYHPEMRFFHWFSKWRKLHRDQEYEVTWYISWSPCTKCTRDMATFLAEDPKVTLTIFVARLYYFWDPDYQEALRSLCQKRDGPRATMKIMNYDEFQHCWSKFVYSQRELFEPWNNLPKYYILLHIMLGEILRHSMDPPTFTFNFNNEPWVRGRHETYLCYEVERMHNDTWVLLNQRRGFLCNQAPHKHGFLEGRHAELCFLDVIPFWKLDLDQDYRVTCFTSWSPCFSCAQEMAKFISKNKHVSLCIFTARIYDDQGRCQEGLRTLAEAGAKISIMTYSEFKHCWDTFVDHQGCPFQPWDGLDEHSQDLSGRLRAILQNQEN

Large T antigen = Large T antigen (Simian virus 40, UniProt P03070); type: functional, Betapolyomavirus macacae;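 further: Confirmatory-stage PubChem screen for compounds that inhibit SV40 T antigen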
Large T antigen, sequence (P03070 whole entry): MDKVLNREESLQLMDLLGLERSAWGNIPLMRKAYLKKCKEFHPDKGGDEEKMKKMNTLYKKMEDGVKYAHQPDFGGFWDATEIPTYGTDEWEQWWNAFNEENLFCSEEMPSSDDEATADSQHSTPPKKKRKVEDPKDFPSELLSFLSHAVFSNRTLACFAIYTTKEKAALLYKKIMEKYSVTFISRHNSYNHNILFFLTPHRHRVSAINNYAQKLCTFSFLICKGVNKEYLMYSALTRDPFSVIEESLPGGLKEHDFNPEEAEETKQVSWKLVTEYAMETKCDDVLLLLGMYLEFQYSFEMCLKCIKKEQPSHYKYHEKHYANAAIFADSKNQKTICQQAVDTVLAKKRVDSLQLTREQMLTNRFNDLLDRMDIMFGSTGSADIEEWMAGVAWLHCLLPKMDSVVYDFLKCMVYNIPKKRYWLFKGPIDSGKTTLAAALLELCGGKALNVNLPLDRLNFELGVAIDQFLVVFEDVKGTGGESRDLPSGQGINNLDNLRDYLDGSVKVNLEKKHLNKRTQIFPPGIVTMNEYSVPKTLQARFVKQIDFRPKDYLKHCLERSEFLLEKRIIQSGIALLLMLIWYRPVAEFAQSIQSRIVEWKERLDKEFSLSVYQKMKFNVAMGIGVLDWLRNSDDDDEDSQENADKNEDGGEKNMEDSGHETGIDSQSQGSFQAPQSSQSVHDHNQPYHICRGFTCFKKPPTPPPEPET

[9] = biological target: FAD-linked sulfhydryl oxidase ALR (Homo sapiens, UniProt P55789); assay: inhibitors of human ALR sulfhydryl oxidase, dose response, biochemical, H2O2 detection, luminescence, cherry-pick (AID 493248)
FAD-linked sulfhydryl oxidase ALR, sequence (P55789 whole entry): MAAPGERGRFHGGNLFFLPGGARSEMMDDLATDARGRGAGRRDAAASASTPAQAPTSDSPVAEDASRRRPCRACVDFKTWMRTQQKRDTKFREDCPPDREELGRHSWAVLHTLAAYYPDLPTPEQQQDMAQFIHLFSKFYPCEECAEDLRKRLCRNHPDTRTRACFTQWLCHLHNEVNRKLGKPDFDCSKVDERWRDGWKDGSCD

[10] = C. albicans growth with fluconazole, confirmation, fluorescence, retest (AID 2467); type: functional, cell-based
BJ [11] = assay: cells; type: functional, cell-based; conditions: Homo sapiens
[12] = cytotoxicity toward DRD oncogenic fibroblasts, dose response, cell-based, non-viral oncogenic, luminescence (AID 1934); type: functional; conditions: Homo sapiens
BJ [13] = assay: cytotoxicity toward BJ-TERT fibroblasts, dose response, cell-based, RAS-independent, luminescence (AID 1933); type: functional; conditions: Homo sapiens
BJ [14] = assay: cytotoxicity toward BJ-TERT-LT-ST fibroblasts, dose response, cell-based, RAS-independent, luminescence (AID 1935); type: functional; conditions: Homo sapiens;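 further: BJ fibroblasts immortalized with TERT plus LT and ST oncogenes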
Nonstructural protein 1 = Nonstructural protein 1 (Influenza A virus, UniProt Q194T2); type: functional, Influenza A virus (A/California/07/2009(H1N1))
Nonstructural protein 1, sequence (Q194T2 whole entry, the tested form may be a part): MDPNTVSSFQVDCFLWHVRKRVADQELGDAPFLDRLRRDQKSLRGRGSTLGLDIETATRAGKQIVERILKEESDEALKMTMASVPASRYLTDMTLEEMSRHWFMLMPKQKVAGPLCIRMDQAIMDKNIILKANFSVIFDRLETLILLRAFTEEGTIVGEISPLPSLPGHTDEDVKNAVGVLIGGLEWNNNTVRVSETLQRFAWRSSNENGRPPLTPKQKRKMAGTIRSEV

[15] = inhibitors of HIV Env-driven cell fusion, dose response, cherry-pick (AID 652057); type: functional, cell-based
[16] = inhibitors of clade B AD8 Env fusion, dose response, cell-based, cherry-pick (AID 652062); type: functional;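 further: luciferase signal from cell-cell fusion driven by HIV-1 clade B AD8 Env; potency is for inhibitors of fusion seen as a drop in luminescence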
Fatty acid synthase = Fatty acid synthase (Homo sapiens, UniProt P49327); assay: FAS thioesterase domain inhibitors, dose response, biochemical, kinetic fluorescence intensity (AID 624326); type: functional;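 further: rate of fluorescence rise from hydrolysis of a fluorogenic O-methyl fluorescein ester substrate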
Fatty acid synthase, sequence (P49327 whole entry, the tested form may be a part): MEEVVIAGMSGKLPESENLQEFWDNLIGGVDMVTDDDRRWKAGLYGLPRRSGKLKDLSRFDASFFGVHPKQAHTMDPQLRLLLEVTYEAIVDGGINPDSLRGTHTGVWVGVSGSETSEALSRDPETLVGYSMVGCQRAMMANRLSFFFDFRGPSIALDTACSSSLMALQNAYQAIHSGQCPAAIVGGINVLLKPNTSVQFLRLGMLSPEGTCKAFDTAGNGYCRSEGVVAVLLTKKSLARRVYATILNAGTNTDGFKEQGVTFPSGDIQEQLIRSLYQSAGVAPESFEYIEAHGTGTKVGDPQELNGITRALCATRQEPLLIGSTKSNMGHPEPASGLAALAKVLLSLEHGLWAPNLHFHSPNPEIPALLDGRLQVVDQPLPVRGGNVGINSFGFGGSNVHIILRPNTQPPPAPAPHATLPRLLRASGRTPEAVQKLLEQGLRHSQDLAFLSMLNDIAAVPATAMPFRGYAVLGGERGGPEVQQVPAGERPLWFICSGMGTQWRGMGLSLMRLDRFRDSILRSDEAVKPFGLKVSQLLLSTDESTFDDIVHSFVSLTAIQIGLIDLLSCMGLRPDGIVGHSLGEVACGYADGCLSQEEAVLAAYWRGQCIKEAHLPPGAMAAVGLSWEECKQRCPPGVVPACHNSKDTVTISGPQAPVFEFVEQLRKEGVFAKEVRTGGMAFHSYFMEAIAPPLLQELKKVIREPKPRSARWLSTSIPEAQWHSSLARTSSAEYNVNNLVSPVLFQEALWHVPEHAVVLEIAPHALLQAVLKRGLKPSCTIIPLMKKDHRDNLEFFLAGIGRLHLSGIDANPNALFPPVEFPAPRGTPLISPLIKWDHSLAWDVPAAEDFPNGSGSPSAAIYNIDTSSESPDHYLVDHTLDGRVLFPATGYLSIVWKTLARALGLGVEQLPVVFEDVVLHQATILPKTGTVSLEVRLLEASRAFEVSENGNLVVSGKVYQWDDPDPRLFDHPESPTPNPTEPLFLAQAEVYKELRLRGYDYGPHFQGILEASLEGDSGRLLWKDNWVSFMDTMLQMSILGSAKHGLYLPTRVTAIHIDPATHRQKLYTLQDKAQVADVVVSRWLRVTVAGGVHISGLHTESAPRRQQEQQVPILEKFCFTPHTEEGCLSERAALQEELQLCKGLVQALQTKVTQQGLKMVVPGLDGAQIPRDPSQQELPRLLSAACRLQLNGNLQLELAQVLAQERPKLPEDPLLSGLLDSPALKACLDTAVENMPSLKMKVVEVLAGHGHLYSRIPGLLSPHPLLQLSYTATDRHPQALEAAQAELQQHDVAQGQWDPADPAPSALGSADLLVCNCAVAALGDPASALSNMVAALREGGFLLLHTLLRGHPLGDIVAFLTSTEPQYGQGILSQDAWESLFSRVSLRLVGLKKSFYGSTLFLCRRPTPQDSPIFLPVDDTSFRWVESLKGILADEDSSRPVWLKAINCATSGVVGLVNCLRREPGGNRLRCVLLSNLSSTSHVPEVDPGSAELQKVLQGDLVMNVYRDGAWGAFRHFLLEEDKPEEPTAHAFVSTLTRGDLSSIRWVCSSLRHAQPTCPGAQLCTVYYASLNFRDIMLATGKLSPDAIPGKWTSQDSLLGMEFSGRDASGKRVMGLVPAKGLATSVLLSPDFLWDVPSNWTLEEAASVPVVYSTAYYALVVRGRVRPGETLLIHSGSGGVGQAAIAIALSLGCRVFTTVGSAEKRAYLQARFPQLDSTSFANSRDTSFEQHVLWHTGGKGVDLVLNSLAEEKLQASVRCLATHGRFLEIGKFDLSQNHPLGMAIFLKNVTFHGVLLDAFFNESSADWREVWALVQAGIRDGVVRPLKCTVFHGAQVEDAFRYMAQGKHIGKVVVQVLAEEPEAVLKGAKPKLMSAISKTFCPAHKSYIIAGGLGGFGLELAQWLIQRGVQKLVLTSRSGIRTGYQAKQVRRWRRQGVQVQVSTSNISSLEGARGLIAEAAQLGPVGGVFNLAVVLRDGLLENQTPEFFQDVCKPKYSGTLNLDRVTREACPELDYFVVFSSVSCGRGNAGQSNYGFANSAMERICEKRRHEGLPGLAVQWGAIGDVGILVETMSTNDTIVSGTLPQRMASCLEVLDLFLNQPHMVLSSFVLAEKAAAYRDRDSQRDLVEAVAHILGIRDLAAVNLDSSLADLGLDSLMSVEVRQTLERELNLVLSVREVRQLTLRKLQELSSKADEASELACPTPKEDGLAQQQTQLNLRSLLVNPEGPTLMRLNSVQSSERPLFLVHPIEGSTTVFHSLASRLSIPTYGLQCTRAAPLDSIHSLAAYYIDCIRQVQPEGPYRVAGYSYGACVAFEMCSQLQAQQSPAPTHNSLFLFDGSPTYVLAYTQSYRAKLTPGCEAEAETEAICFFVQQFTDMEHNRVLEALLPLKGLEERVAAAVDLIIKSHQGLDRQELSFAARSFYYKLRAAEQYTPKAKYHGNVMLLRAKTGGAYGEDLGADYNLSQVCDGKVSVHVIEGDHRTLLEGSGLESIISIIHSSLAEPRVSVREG

INS1 = assay: beta cell apoptosis inhibitors, cytokine rescue, dose response, luminescence, retest (AID 449756); type: functional, cell-based; conditions: Rattus norvegicus;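 further: cell death triggered by IL-1 beta plus TNF-alpha plus IFN-gamma mixture; protective hits raise ATP signal compared with cytokine alone wells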

Cc1ccc(C(C(=O)NC(C)(C)C)N(C(=O)CCC(=O)Nc2ccccn2)c2ccccc2F)cc1 (stereo unspecified)
EC50 [1]: 2.99 µM (active)

Cc1cccc(S(=O)(=O)N/N=c2\sc3ccccc3n2C)c1
EC50 [2]: 10.1 µM (active)
EC50 [3]: 5.13 µM (active)
EC50 (H4): 23.2 µM (active)

O=C(CSc1nc(O)c(C2CCCCC2)c(O)n1)NCC1CCCO1 (stereo unspecified)
IC50 (Protein skinhead-1): > 100 µM (inactive)

COC(=O)CSc1nnc(SCc2ccc(OC)cc2)s1
IC50 (Protein skinhead-1): > 100 µM (inactive)

CCc1nc2ccccc2n1CC(=O)N(C(C)CC)C1CCS(=O)(=O)C1 (stereo unspecified)
IC50 (Protein skinhead-1): > 100 µM (inactive)

CNc1sc(C(=O)c2ccccc2F)c(N)c1-c1nc2ccccc2s1
IC50 [4]: > 66 µM (inactive)
IC50 [5]: 4.92 µM (active)
IC50 [6]: 49.5 µM (inactive)

Oc1ccc(/C=N/n2c(S)nnc2COc2ccccc2)cc1O
EC50 [7]: 24.6 µM (active)
IC50 [8]: 2.1 µM (active)
IC50 (Large T antigen): 6.29 µM (active)
AC50 [9]: 0.005 µM (active)
EC50 [10]: > 38 µM (not active)

COC(=O)c1cn(NC(=O)C2COc3ccccc3O2)c(=O)c2ccccc12 (stereo unspecified)
IC50 (Protein skinhead-1): > 100 µM (inactive)

O=C(Cn1c2ccccc2c(=O)c2cc([N+](=O)[O-])ccc21)Nc1ccccc1Cl
EC50 (BJ [11]): > 150 µM (not active)
EC50 [12]: > 150 µM (inconclusive)
EC50 (BJ [13]): > 150 µM (not active)
EC50 (BJ [14]): > 75 µM (inconclusive)

O=C(Nc1cccc2ccccc12)c1onc2c1CCCC2
EC50 [2]: 78.7 µM (active)
EC50 [3]: 0.192 µM (active)
EC50 (H4): > 120 µM (not active)

CC(Sc1nnc(-c2cccnc2)n1-c1ccccc1)C(=O)NCc1ccc2c(c1)OCO2 (stereo unspecified)
EC50 [2]: 16.5 µM (active)
EC50 [3]: 9.46 µM (active)
EC50 (H4): 38 µM (active)

CCC(c1nnnn1CCOC)N1CCN(Cc2ccccc2)CC1 (stereo unspecified)
IC50 (Protein skinhead-1): > 100 µM (inactive)

CC1=NN(c2ccccc2)C(=O)/C1=C/c1ccc[nH]1
IC50 (Nonstructural protein 1): 33 µM (active)

CSC(=NCCCN1CCOCC1)NS(=O)(=O)c1cccs1
IC50 (Protein skinhead-1): > 100 µM (inactive)

CC(C)NC(=O)Nc1ccc2c(c1)C(=O)N([C@H](C)CO)C[C@@H](C)[C@@H](CN(C)C(=O)CCC(F)(F)F)OCCCC[C@@H](C)O2
AC50 [15]: < 0.26 µM (active)
AC50 [16]: 1.02 µM (active)

CCn1c(=O)c([N+](=O)[O-])c(N2CCN(Cc3ccc4c(c3)OCO4)CC2)c2ccccc21
IC50 (Fatty acid synthase): 1.8 µM (active)
AC50 (INS1): 26.1 µM (active)

CC(C)CN=C(S)NC1CC2CCCC(C1)N2C1CCCCC1 (stereo unspecified)
EC50 [2]: > 120 µM (not active)
EC50 [3]: > 120 µM (not active)
EC50 (H4): 44.3 µM (active)

CC(NC(=O)c1ccco1)C(c1cccs1)N1CCN(c2ccccc2)CC1 (stereo unspecified)
EC50 [1]: 0.376 µM (active)

Cn1c(-c2ccc(F)cc2)cnc1NCc1ccc(F)cc1F
EC50 [1]: 2.66 µM (active)

O=C(Nc1ccc2c(c1)OCO2)c1ccc(Br)o1
EC50 [2]: > 120 µM (not active)
EC50 [3]: 0.165 µM (active)
EC50 (H4): > 120 µM (not active)

From ChEMBL document CHEMBL1201862, “PubChem BioAssay data set” (2004)
